Assay results taken from patent US5747239A, “Synthetic peptides specific for the detection of antibodies to HCV, diagnosis of HCV infection and preventions thereof as vaccines” (United Biomedical, Inc., priority 1994, dated 1998).

Columns and labels:
Format in all cases: binding, human
antibodies to HCV [1] = experiment: Envelope/NS-1 peptide ELISA, samples nonreactive on HCV core (VIIIE) and NS-4 (IIH) peptides
Method: In addition to screening on Panel III samples, the envelope/NS-1 peptides were also tested against samples from plasmapheresis donors who had elevated ALT levels but were non-reactive on the HCV from the core (e.g. peptide VIIIE) and NS-4 (e.g. peptide IIH) regions screening EIA. Six of these samples, which may represent early seroconversion samples, were reactive on one or more envelope/NS-1 peptide (Table 8d). The absorbance values on these HCV EIA nonreactive samples are lower than the values found for Panel III samples. In the case of Pep7 and Pep10, their shorter segments, 225B and 246C, respectively, gave greater immunoreactivity, in contrast to the performance on Panel III.

antibodies to HCV [2] = experiment: Envelope/NS-1 peptide ELISA, anti-HCV positive plasmapheresis donors with elevated ALT (Panel III); settings: for % Relative Immunoreactivity: envelope/NS-1 peptides, Panel III (17 samples), peptide 254B as a standard
Method: To select a panel of samples with reactivity to peptides from the envelope/NS-1 region, 97 such samples from anti-HCV positive plasmapheresis donors with elevated ALT levels were tested with peptide 254B. […] 17 samples with the greatest reactivity with peptide 254B were chosen to form a third panel (Panel III) to screen for the immunoreactivity of the other 20 peptides from the envelope/NS-1 region. The individual absorbance values of each of the 17 samples on the four peptides with the greatest reactivity, i.e. 255C (pep7), 254B (pep8), 247B (pep9), and 246D (pep10), are listed in Table 8b.

antibodies to HCV [3] = experiment: EIA of NS-3 peptides before and after pH adjustment
Method: Peptides dissolved at 1 mg/mL in H2 O, pH 4, were titrated to pH 11 by addition of diluted NaOH. After 5 min at pH 11, the pH of the peptide solution was brought down to 7.0 using diluted HCl. Immunoreactivity of the peptides thus treated was compared with reactivity prior to pH adjustment (Table 4E). Two-to three-fold increases in A492 nm were seen. Some previously non-reactive serum samples were able to react with pH adjusted peptides. For instance, serum sample 1, which is non-reactive to 261C, has an absorbance of 1401 mA when tested with the corresponding pH adjusted peptide.

antibodies to HCV [4] = experiment: Peptide ELISA for relative immunoreactivity, 8 member HCV serum panel (Panel I); settings: NS-3 peptides (Tables 4B-4D), relative to pep3 (279A)
[5] = sample 1 (first line, number not given)
[6] = serum sample 1, Ctrl (prior to pH adjustment)
[7] = serum sample 1, pH adj (pH 11 for 5 min, then 7.0)

## CLTVPASAYQVRNSTGLYHVTNDCPNSSIVYEAHDAILHTPGCVPCVREGNVSRC [255C]
Antibodies to HCV [1]; [5]
  Absorbance: 0.098
Antibodies to HCV [1]; sample 2
  Absorbance: 0.346
Antibodies to HCV [1]; sample 3
  Absorbance: 0.300
Antibodies to HCV [1]; sample 4
  Absorbance: 0.021
Antibodies to HCV [1]; sample 5
  Absorbance: 0.231
Antibodies to HCV [1]; sample 6
  Absorbance: 0.017
Antibodies to HCV [2]; Panel III sample 2
  Absorbance: 0.017
Antibodies to HCV [2]; Panel III sample 3
  Absorbance: 0.235
Antibodies to HCV [2]; Panel III sample 4
  Absorbance: 0.066
Antibodies to HCV [2]; Panel III sample 5
  Absorbance: 0.711
Antibodies to HCV [2]; Panel III sample 6
  Absorbance: 0.106
Antibodies to HCV [2]; Panel III sample 7
  Absorbance: 0.784
Antibodies to HCV [2]; Panel III sample 8
  Absorbance: 0.037
Antibodies to HCV [2]; Panel III sample 9
  Absorbance: 0.019
Antibodies to HCV [2]; Panel III sample 10
  Absorbance: 0.313
Antibodies to HCV [2]; Panel III sample 11
  Absorbance: 0.035
Antibodies to HCV [2]; Panel III sample 14
  Absorbance: 0.047
Antibodies to HCV [2]; Panel III sample 15
  Absorbance: 0.012
Antibodies to HCV [2]; Panel III sample 16
  Absorbance: 0.064
Antibodies to HCV [2]; Panel III sample 17
  Absorbance: 0.077
Antibodies to HCV [2]
  % Relative Immunoreactivity: 51.4%

## INSTALNCNESLNTGWLAGLIYQHKFNSSGCPERLASC [246C]
Antibodies to HCV [1]; [5]
  Absorbance: 0.240
Antibodies to HCV [1]; sample 2
  Absorbance: 0.015
Antibodies to HCV [1]; sample 3
  Absorbance: 0.023
Antibodies to HCV [1]; sample 4
  Absorbance: 0.046
Antibodies to HCV [1]; sample 5
  Absorbance: 0.009
Antibodies to HCV [2]
  % Relative Immunoreactivity: 97.6%

## SVTVPHPNIEEVALSTTGEIPFYGKAIPLEVIKGGRHLIFCHSKKKCDEL [261C]
Antibodies to HCV [3]; after pH adjustment, compared with the standard pep3 (279A)
  relative immunopotency: 68.5%
Antibodies to HCV [3]; [6]
  A492 nm (mA) by EIA: 6 mA
Antibodies to HCV [3]; [7]
  A492 nm (mA) by EIA: 1401 mA
Antibodies to HCV [3]; serum sample 2, Ctrl
  A492 nm (mA) by EIA: 5 mA
Antibodies to HCV [3]; serum sample 2, pH adj
  A492 nm (mA) by EIA: 499 mA
Antibodies to HCV [3]; serum sample 3, Ctrl
  A492 nm (mA) by EIA: 24 mA
Antibodies to HCV [3]; serum sample 3, pH adj
  A492 nm (mA) by EIA: 175 mA
Antibodies to HCV [3]; serum sample 4, Ctrl
  A492 nm (mA) by EIA: 27 mA
Antibodies to HCV [3]; serum sample 4, pH adj
  A492 nm (mA) by EIA: 351 mA
Antibodies to HCV [4]
  % Relative Immunoreactivity: 3.2%

## VRNSTGLYHVTNDCPNSSIVYEAHDAILHTPGCPCVREGNVSRC [255B]
Antibodies to HCV [1]; sample 4
  Absorbance: 0.021
Antibodies to HCV [1]; sample 6
  Absorbance: 0.012
Antibodies to HCV [2]
  % Relative Immunoreactivity: 18.7%

## WHINSTALNCNESLNTGWLAGLIYQHKFNSSGCPERLASC [246D]
Antibodies to HCV [1]; [5]
  Absorbance: 0.068
Antibodies to HCV [1]; sample 2
  Absorbance: 0.028
Antibodies to HCV [1]; sample 3
  Absorbance: 0.029
Antibodies to HCV [1]; sample 4
  Absorbance: 0.049
Antibodies to HCV [1]; sample 5
  Absorbance: 0.009
Antibodies to HCV [1]; sample 6
  Absorbance: 0.102
Antibodies to HCV [2]; Panel III sample 1
  Absorbance: 1.085
Antibodies to HCV [2]; Panel III sample 2
  Absorbance: 0.068
Antibodies to HCV [2]; Panel III sample 3
  Absorbance: 0.090
Antibodies to HCV [2]; Panel III sample 5
  Absorbance: 0.077
Antibodies to HCV [2]; Panel III sample 9
  Absorbance: 0.334
Antibodies to HCV [2]; Panel III sample 10
  Absorbance: 1.488
Antibodies to HCV [2]; Panel III sample 11
  Absorbance: 0.045
Antibodies to HCV [2]; Panel III sample 12
  Absorbance: 0.408
Antibodies to HCV [2]; Panel III sample 13
  Absorbance: 0.451
Antibodies to HCV [2]; Panel III sample 14
  Absorbance: 0.037
Antibodies to HCV [2]; Panel III sample 16
  Absorbance: 0.810
Antibodies to HCV [2]; Panel III sample 17
  Absorbance: 0.111
Antibodies to HCV [2]
  % Relative Immunoreactivity: 98.6%

B1: LVLNPSVAATLGFGAYMSKAHGIDPNIRTGVRTITTGSPITYSTYGKFLADGGCSGGAYDIIICDECHS (peptide)
chain: LVLNPSVAATLGFGAYMSKAHGIDPNIRTGVRTITTGSPITYSTYGKFLADGGCSGGAYDIIICDECHS
Antibodies to HCV [3]; [6]
  A492 nm (mA) by EIA: 210 mA
Antibodies to HCV [3]; [7]
  A492 nm (mA) by EIA: 591 mA
Antibodies to HCV [3]; serum sample 2, Ctrl
  A492 nm (mA) by EIA: 37 mA
Antibodies to HCV [3]; serum sample 2, pH adj
  A492 nm (mA) by EIA: 159 mA
Antibodies to HCV [3]; serum sample 3, Ctrl
  A492 nm (mA) by EIA: 0 mA
Antibodies to HCV [3]; serum sample 3, pH adj
  A492 nm (mA) by EIA: 217 mA
Antibodies to HCV [3]; serum sample 4, Ctrl
  A492 nm (mA) by EIA: 124 mA
Antibodies to HCV [3]; serum sample 4, pH adj
  A492 nm (mA) by EIA: 311 mA
Antibodies to HCV [4]
  % Relative Immunoreactivity: 11.1%

B2: TVLDQAETAGARLVVLATATPPGSVTVPHPNIEEVALSTTGEIPFYGKAIPLEVIKGGRHLIFCHSKKKCDEL (peptide)
chain: TVLDQAETAGARLVVLATATPPGSVTVPHPNIEEVALSTTGEIPFYGKAIPLEVIKGGRHLIFCHSKKKCDEL
Antibodies to HCV [4]
  % Relative Immunoreactivity: 15.8%
